Reference: patent publication EP2435064B1, “USE OF HAT INHIBITORS AND TMPRSS2 INHIBITORS AS MEDICAMENTS” (Philipps-Universität Marburg, priority 2009, dated 2010)

Key:
HAT-Flag = molecular target: T1, HAT-Flag (Homo sapiens, UniProt O60235); assay: Inhibition of affinity-purified HAT-Flag: cleavage of the substrate Boc-Leu-Gly-Arg-AMC; format: biochemical; conditions: 25 µM Boc-Leu-Gly-Arg-AMC, 2 h, 37° C, pH 7,4
T1 construct: made in house; host or cells: MDCK-HAT cells (MDCK stably transfected with pcEFTet-On/NEO and pTRE2pur-HAT-FLAG, doxycycline-inducible); isolated with the FLAG Tagged Protein Immunoprecipitation Kit
T1 sequence (O60235 1-418): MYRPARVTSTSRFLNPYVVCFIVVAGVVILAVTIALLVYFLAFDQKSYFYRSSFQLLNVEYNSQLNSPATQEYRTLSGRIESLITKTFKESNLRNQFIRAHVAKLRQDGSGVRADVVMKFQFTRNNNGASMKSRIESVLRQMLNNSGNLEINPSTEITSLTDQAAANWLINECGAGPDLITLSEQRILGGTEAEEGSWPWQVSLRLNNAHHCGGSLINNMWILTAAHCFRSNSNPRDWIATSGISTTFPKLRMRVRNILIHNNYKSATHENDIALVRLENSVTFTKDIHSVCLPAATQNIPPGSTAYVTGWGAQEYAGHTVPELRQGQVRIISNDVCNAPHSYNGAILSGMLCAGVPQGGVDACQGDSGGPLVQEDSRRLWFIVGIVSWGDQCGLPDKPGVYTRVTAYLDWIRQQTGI
Description: Die in MDCK-HAT-Zellen exprimierte Protease HAT besitzt zusätzlich ein C-terminales Flag-Epitop, welches die Affinitätsreinigung der Protease mit Hilfe von anti-FlagM2-Agarose (Sigma-Aldrich) ermöglicht. HAT-Flag liegt nach der Immunpräzipitation als aktive Protease vor. Die enzymatische Aktivität kann mit Hilfe des Fluoreszenzsubstrats Boc-Leu-Gly-Arg-AMC bestimmt werden.
Für Inhibitionsstudien wurde HAT-Flag zunächst mit Hilfe des FLAG®Tagged Protein Immunoprecipitation Kits aus MDCK-HAT-Zellen isoliert. Anschließend wurde die isolierte Protease mit 25 µM Boc-Leu-Gly-Arg-AMC in 50 mM Tris/HCl pH 7,4 in An- oder Abwesenheit der Inhibitoren (Endkonzentrationen 0,1 -10 µM) für 2 h bei 37° C inkubiert. Die Umsetzung des Substrates wurde mit Hilfe eines Fluoreszenz-Spektralphotomers bei 350 nm (Extinktion) sowie 460 nm (Emission) bestimmt. Als Kontrolle diente die Bestimmung der Proteaseaktivität in Abwesenheit eines Inhibitors (entspricht 0% Hemmung). Tabelle 2: Hemmwirkung synthetischer Serinproteasehemmstoffe auf die HAT-katalysierte Spaltung des Substrats Boc-Leu-Gly-Arg-AMC.

HAT = molecular target: T2, HAT (Homo sapiens, UniProt O60235); assay: Enzyme kinetic determination of inhibition of HAT (Ki, Dixon method, fluorogenic substrate d-Cyclohexylalanin-Pro-Arg-7-Aminomethylcoumarin); format: biochemical; conditions: HAT (R&D Systems), Tris pH 9.5, room temperature
T2 construct: purchased R&D Systems
T2 sequence (O60235 1-418): T1 sequence (O60235 1-418)
Description: (§1) Die Hemmwirkung der Inhibitoren für HAT (R&D Systems) und TMPRSS2 (katalytische Domäne exprimiert in E. coli) wurden unter Verwendung chromogener Substrate ermittelt. Für HAT wurde d-Cyclohexylalanin-Pro-Arg-7-Aminomethylcoumarin und für TMPRSS2 d-Cyclohexylalanin-Gly-Arg-p-Nitroanilin als Substrat verwendet. Die Bestimmung wurde mit einem Fluoreszenz-Plattenreader Safire^2 der Firma Tecan (λEx = 380 nm, λEm = 460 nm) für HAT und mit einem UV/Vis Plattenreader iEMS Reader MF 1401 der Firma LABSYSTEMS für TMPRSS2 bei 405 nm durchgeführt. Die Messung erfolgte in Tris-Puffer (50 mM Tris pH 9.5, 0,05% Brij 58 und 1 mg/ml bovines serum Albumin für HAT und 50 mM Tris pH 8.0, 0,154 M NaCl für TMPRSS2) auf Mikrotiter Platten bei Raumtemperatur. Die Inhibitorlösungen geeigneter Konzentration wurden in DMSO hergestellt. Im Messansatz wurden zu 2 µl Inhibitorlösung unterschiedlicher Konzentration jeweils 158 µl Puffer und 20 µl Substratlösung geben, und danach die Reaktion durch Zugabe von 20 µl Enzymlösung gestartet. Jeder Inhibitor wurde mit drei verschiedenen Substratkonzentrationen vermessen (50 µM, 100 µM, 200 µM für HAT und 45 µM, 90 µM und 181 µM für TMPRSS2). Die Inhibitorkonzentration wurde mindestens um den Bereich einer Größenordnung variiert und jeweils die steady-state Geschwindigkeit bestimmt. Die Berechnung der Ki-Werte erfolgte mit Hilfe eines Computerprogramms nach der Methode von Dixon.

[1] = tested on: Influenzavirus-Isolat A/Memphis/14/96 (H1N1); format: cell-based; conditions: Calu-3-Zellen (endogenous TMPRSS2), 24 h infection
TMPRSS2 = molecular target: T3, TMPRSS2 (Homo sapiens, UniProt O15393); assay: Enzyme kinetic determination of inhibition of TMPRSS2 (Ki, Dixon method, chromogenic substrate d-Cyclohexylalanin-Gly-Arg-p-Nitroanilin); format: biochemical; conditions: TMPRSS2 catalytic domain expressed in E. coli, Tris pH 8.0, room temperature
T3 construct: TMPRSS2 (katalytische Domäne exprimiert in E. coli); made in house; host or cells: E. coli
Description: as §1

T3 sequence (O15393 256-492 limits assumed): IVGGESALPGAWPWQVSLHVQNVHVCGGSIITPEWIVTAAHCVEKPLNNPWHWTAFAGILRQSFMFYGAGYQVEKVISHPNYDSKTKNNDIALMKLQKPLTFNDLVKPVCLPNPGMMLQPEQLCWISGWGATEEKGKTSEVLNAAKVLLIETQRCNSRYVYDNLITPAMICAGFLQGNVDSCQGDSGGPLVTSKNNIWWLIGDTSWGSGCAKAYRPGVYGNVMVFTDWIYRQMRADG

With N=C(N)NCCC[C@@H](NS(=O)(=O)Cc1ccccc1)C(=O)N1CCC[C@H]1C(=O)NCc1ccc(C(=N)N)cc1 [Inhibitor 1] as the compound, how does the “Prozent Hemmung (%)” value (HAT-Flag; Inhibitorkonzentration 0,1 µM) read?
The value was 22,3%.

And the “Prozent Hemmung (%)” value (HAT-Flag; Inhibitorkonzentration 1 µM)?
Its value is 70,7%.

And the “Prozent Hemmung (%)” value (HAT-Flag; Inhibitorkonzentration 10 µM)?
Its value is 93,1%.

And the Ki (HAT)?
Its Ki is 19 nM.

What about the “Reduktion der Virusausbreitung” value [1] of the same compound?
Its value is “konzentrationsabhängige Reduktion der Virusausbreitung”.

And the Ki (TMPRSS2)?
Its Ki is 3 nM.

With N=C(N)c1ccc(CNC(=O)CNC(=O)[C@@H](CCCN=C(N)N)NS(=O)(=O)Cc2ccccc2)cc1 [Inhibitor 2] as the compound, how does the Ki (HAT) read?
Its Ki is 279 nM.

Which results are given for N=C(N)c1ccc(CNC(=O)[C@H](CO)NC(=O)[C@@H](CO)NS(=O)(=O)Cc2ccccc2)cc1 [Inhibitor 3]?
Prozent Hemmung (%) (HAT-Flag; Inhibitorkonzentration 0,1 µM): 29,5%; Prozent Hemmung (%) (HAT-Flag; Inhibitorkonzentration 1 µM): 47,1%; Prozent Hemmung (%) (HAT-Flag; Inhibitorkonzentration 10 µM): 80,3%; Ki (HAT): 78 nM; Reduktion der Virusausbreitung [1]: konzentrationsabhängige Reduktion der Virusausbreitung

Which Ki (HAT) does the source give for N=C(N)c1ccc(CNC(=O)[C@H](CCCCNC(=O)OCc2ccccc2)NC(=O)[C@@H](CO)NS(=O)(=O)Cc2ccccc2)cc1 [Inhibitor 4] here?
The Ki was 48 nM.

For N=C(N)c1ccc(CNC(=O)[C@@H]2CCCN2C(=O)[C@@H](CC2CCCCC2)NS(=O)(=O)Cc2ccccc2)cc1 [Inhibitor 5], which “Prozent Hemmung (%)” value (HAT-Flag; Inhibitorkonzentration 0,1 µM) is on record?
Its value is 27%.

And the “Prozent Hemmung (%)” value (HAT-Flag; Inhibitorkonzentration 1 µM)?
Its value is 47,4%.

And the “Prozent Hemmung (%)” value (HAT-Flag; Inhibitorkonzentration 10 µM)?
Its value is 51,5%.

What about the Ki (HAT) of the same compound?
The Ki was 77 nM.

What about the Ki (TMPRSS2) of the same compound?
Its Ki is 81 nM.

[H]/N=C(\N)c1ccc(CNC(=O)[C@@H]2CCCN2C(=O)[C@@H](Cc2ccccc2)NS(=O)(=O)Cc2ccccc2)cc1 [Inhibitor 6] was tested. Which Ki (HAT) did it give?
The Ki was 66 nM.

For N=C(N)c1ccc(CNC(=O)[C@@H]2CCCN2C(=O)[C@@H](CCc2ccccc2)NS(=O)(=O)Cc2ccccc2)cc1 [Inhibitor 7], which Ki (HAT) is on record?
The Ki was 55 nM.

For N=C(N)c1ccc(CNC(=O)[C@@H]2CCCN2C(=O)[C@@H](CCCCNC(=O)OCc2ccccc2)NS(=O)(=O)Cc2ccccc2)cc1 [Inhibitor 8], which Ki (HAT) is on record?
The Ki was 49 nM.

How did the Ki (HAT) turn out when N=C(N)c1ccc(CNC(=O)[C@@H]2CCCN2C(=O)[C@@H](CCCCN)NS(=O)(=O)Cc2ccccc2)cc1 [Inhibitor 9] was run?
Its Ki is 30 nM.

For N=C(N)NCCCC[C@@H](NS(=O)(=O)Cc1ccccc1)C(=O)N1CCC[C@H]1C(=O)NCc1ccc(C(=N)N)cc1 [Inhibitor 10], which Ki (HAT) is on record?
The Ki was 13 nM.

How did the Ki (HAT) turn out when N=C(N)c1ccc(CNC(=O)[C@@H]2CCCN2C(=O)C(CCc2ccccn2)NS(=O)(=O)Cc2ccccc2)cc1 (stereo partly shown) [Inhibitor 11] was run?
The Ki was 32 nM.

For N#Cc1ccc(C[C@@H](NS(=O)(=O)Cc2ccccc2)C(=O)N2CCC[C@H]2C(=O)NCc2ccc(C(=N)N)cc2)cc1 [Inhibitor 12], which Ki (HAT) is on record?
Its Ki is 210 nM.

With CCCCCCCCCC(=O)NCCCC[C@H](NC(=O)[C@@H](CCCNC(=N)N)NS(=O)(=O)Cc1ccccc1)C(=O)NCc1ccc(C(=N)N)cc1 [Inhibitor 14] as the compound, how does the Ki (HAT) read?
Its Ki is 160 nM.

What about the Ki (TMPRSS2) of the same compound?
Its Ki is 8 nM.

How did the Ki (HAT) turn out when N=C(N)c1ccc(CNC(=O)CNC(=O)[C@@H](CO)NS(=O)(=O)Cc2ccccc2)cc1 [Inhibitor 15] was run?
The Ki was 1840 nM.

For CCCCCCCCCC(=O)NCCCC[C@H](NC(=O)[C@@H](CC1CCCCC1)NS(=O)(=O)Cc1ccccc1)C(=O)NCc1ccc(C(=N)N)cc1 [Inhibitor 16], which Ki (HAT) is on record?
Its Ki is greater than 20000 nM.

Which Ki (HAT) does the source give for N=C(N)c1ccc(CNC(=O)[C@H](CCCCNC(=O)OCc2ccccc2)NC(=O)[C@@H](CC2CCCCC2)NS(=O)(=O)Cc2ccccc2)cc1 [Inhibitor 17] here?
Its Ki is 488 nM.

And the Ki (TMPRSS2)?
Its Ki is 84 nM.
